What is called EC50 is the concentration needed to bring the measured effect to its halfway point.

Sequence of GLP1R (P43220 24-463): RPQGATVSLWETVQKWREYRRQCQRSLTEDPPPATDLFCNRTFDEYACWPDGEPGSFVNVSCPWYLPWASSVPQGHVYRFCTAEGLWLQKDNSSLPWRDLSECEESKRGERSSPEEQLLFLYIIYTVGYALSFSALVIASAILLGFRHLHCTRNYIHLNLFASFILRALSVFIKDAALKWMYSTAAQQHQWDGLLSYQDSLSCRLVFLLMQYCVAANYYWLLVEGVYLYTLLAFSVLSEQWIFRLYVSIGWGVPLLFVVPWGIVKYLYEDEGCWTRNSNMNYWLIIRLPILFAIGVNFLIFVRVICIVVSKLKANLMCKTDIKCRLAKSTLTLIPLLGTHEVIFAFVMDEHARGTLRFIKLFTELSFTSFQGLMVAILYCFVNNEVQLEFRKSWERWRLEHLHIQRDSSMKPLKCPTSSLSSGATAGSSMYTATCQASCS

This experiment has as its target GLP1R (Homo sapiens, UniProt P43220). Briefly: GLP1R cAMP HTRF assay, HEK293/GLP-1R/CRE/Luc (HEK293T cells). The format is cell-based. As to conditions: read-out: EC50. In a few lines:
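cAMP accumulation via HTRF after 30 min, 37 °C exposure of 1000 receptor-expressing cells/well to compound (0.5% DMSO final) in IBMX (500 μM)/0.1% BSA DPBS.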
On the technique in general: TR-FRET usually uses a lanthanide donor and a delayed reading to cut background.
As to `O=C(O)c1ccc2nc(CN3CC=C(c4cccc(OCc5cnccc5C(F)(F)F)n4)CC3)n(C[C@@H]3CCO3)c2c1` [Compound 150, (S)-1-(oxetan-2-ylmethyl)-2-((6-((4-(trifluoromethyl)pyridin-3-yl)methoxy)-3′,6′-dihydro-[2,4′-bipyridin]-1′(2′H)-yl)methyl)-1H-benzo[d]imidazole-6-carboxylic add], the EC50 is no more than 1000 nM.

`O=C(O)c1ccc2nc(CN3CC=C(c4cccc(OCc5ccc6c(c5)OCCO6)n4)CC3)n(C[C@@H]3CCO3)c2c1` [Compound 151, (S)-2-((6-((2,3-dihydrobenzo[b][1,4]dioxin-6-yl)methoxy)-3′,6′-dihydro-[2,4′-bipyridin]-1′(2′H)-yl)methyl)-1-(oxetan-2-ylmethyl)-1H-benzo[d]imidazole-6-carboxylic add]: the EC50 is no more than 15 nM.

Take `O=C(O)c1ccc2nc(CN3CC=C(c4cccc(OCc5ccc6c(c5)OCO6)n4)CC3)n(C[C@@H]3CCO3)c2c1` [Compound 152]: the 50% effective concentration (EC50) is no more than 15 nM.

Regarding `O=C(O)c1ccc2nc(CN3CC=C(c4cccc(OCc5ccc6c(c5)OC(F)(F)O6)n4)CC3)n(C[C@@H]3CCO3)c2c1` [Compound 153, (S)-2-((6-((2,2-difluorobenzo[d][1,3]dioxol-5-yl)methoxy)-3′,6′-dihydro-[2,4′-bipyridin]-1′(2′H)-yl)methyl)-1-(oxetan-2-ylmethyl)-1H-benzo[d]imidazole-6-carboxylic acid], the EC50 is no more than 15 nM.

`O=C(O)c1ccc2nc(CN3CC=C(c4cccc(OCc5ccc(-n6ccnc6)cc5)n4)CC3)n(C[C@@H]3CCO3)c2c1` [Compound 154, (S)-2-((6-((4-(1H-imidazol-1-yl)benzyl)oxy)-3′,6′-dihydro-[2,4′-bipyridin]-1′(2′H)-yl)methyl)-1-(oxetan-2-ylmethyl)-1H-benzo[d]imidazole-6-carboxylic acid]: the concentration giving a half-maximal response (EC50) is no more than 15 nM.

On to `O=C(O)c1ccc2nc(CN3CC=C(c4cccc(OCc5ccccc5F)n4)CC3)n(C[C@@H]3CCO3)c2c1` [Compound 155, (S)-2-((6-((2-fluorobenzyl)oxy)-3′,6′-dihydro-[2H′-bipyridin]-1′(2′H)-yl)methyl)-1-(oxetan-2-ylmethyl)-1H-benzo[d]imidazole-6-carboxylic acid], for which the EC50 is no more than 15 nM.

Turning to `O=C(O)c1ccc2nc(CN3CC=C(c4cccc(OCc5cccc(F)c5)n4)CC3)n(C[C@@H]3CCO3)c2c1` [Compound 156, (S)-2-((6-((3-fluorobenzyl)oxy)-3′,6′-dihydro-[2,4′-bipyridin]-1′(2′H)-yl)methyl)-1-(oxetan-2-ylmethyl)-1H-benzo[d]imidazole-6-carboxylic add], the 50% effective concentration (EC50) was no more than 150 nM.

`O=C(O)c1ccc2nc(CN3CC=C(c4cccc(OCc5ccc(F)cc5)n4)CC3)n(C[C@@H]3CCO3)c2c1` [Compound 157, (S)-2-((6-((4-fluorobenzyl)oxy)-3′,6′-dihydro-[2H′-bipyridin]-1′(2′H)-yl)methyl)-1-(oxetan-2-ylmethyl)-1H-benzo[d]imidazole-6-carboxylic acid]: the half-maximal effective concentration (EC50) was no more than 15 nM.

Take `O=C(O)c1ccc2nc(CN3CC=C(c4cccc(OCc5cccnc5)n4)CC3)n(C[C@@H]3CCO3)c2c1` [Compound 158]: the EC50 is no more than 150 nM.

Consider `O=C(O)c1ccc2nc(CN3CC=C(c4cccc(OCc5ccccn5)n4)CC3)n(C[C@@H]3CCO3)c2c1` [Compound 159, (S)-1-(oxetan-2-ylmethyl)-2-((6-(pyridin-2-ylmethoxy)-5′,6′-dihydro-[2,4′-bipyridin]-1′(2′H)-yl)methyl)-1H-benzo[d]imidazole-6-carboxylic acid], for which the half-maximal effective concentration (EC50) is no more than 150 nM.

For the molecule `O=C(O)c1ccc2nc(CN3CC=C(c4cccc(OCc5ccncc5)n4)CC3)n(C[C@@H]3CCO3)c2c1` [Compound 160, (S)-1-(oxetan-2-ylmethyl)-2-((6-(pyridin-4-ylmethoxy)-5′,6′-dihydro-[2H′-bipyridin]-1′(2′H)-yl)methyl)-1H-benzo[d]imidazole-6-carboxylic acid], the 50% effective concentration (EC50) was no more than 150 nM.

Consider `Cc1ncccc1COc1cccc(C2=CCN(Cc3nc4ccc(C(=O)O)cc4n3C[C@@H]3CCO3)CC2)n1` [Compound 161, (S)-2-((6-((2-methylpyridin-3-yl)methoxy)-3′,6′-dihydro-[2,4′-bipyridin]-1′(2′ H)-yl)methyl)-1-(oxetan-2-ylmethyl)-1H-benzo[d]imidazole-6-carboxylic acid], for which the half-maximal effective concentration (EC50) was no more than 150 nM.

In the case of `O=C(O)c1ccc2nc(CN3CC=C(c4cccc(OCc5ccnc(Cl)c5)n4)CC3)n(C[C@@H]3CCO3)c2c1` [Compound 162, (S)-2-((6-((2-chloropyridin-4-yl)methoxy)-3′,6′-dihydro-[2,4′-bipyridin]-1′(2′H)-yl)methyl)-1-(oxetan-2-ylmethyl)-1H-benzo[d]imidazole-6-carboxylic acid], the EC50 was no more than 150 nM.

In the case of `O=C(O)c1ccc2nc(CN3CC=C(c4cccc(OCc5cccnc5Cl)n4)CC3)n(C[C@@H]3CCO3)c2c1` [Compound 163], the EC50 was no more than 15 nM.

For `O=C(O)c1ccc2nc(CN3CC=C(c4cccc(OCc5ncc(Cl)cn5)n4)CC3)n(C[C@@H]3CCO3)c2c1` [Compound 164, (S)-2-((6-((5-chloropyrimidin-2-yl)methoxy)-3′,6′-dihydro-[2H′-bipyridin]-1′(2′H)-yl)methyl)-1-(oxetan-2-ylmethyl)-1H-benzo[d]imidazole-6-carboxylic acid], the EC50 was no more than 150 nM.

On to `O=C(O)c1ccc2nc(CN3CC=C(c4cccc(OCc5cnccn5)n4)CC3)n(C[C@@H]3CCO3)c2c1` [Compound 165, (S)-1-(oxetan-2-ylmethyl)-2-((6-(pyrazin-2-ylmethoxy)-3′,6′-dihydro-[2,4′-bipyridin]-1′(2′H)-yl)methyl)-1H-benzo[d]imidazole-6-carboxylic acid], for which the EC50 is no more than 1000 nM.

On to `CCOc1ccc(COc2cccc(C3=CCN(Cc4nc5ccc(C(=O)O)cc5n4C[C@@H]4CCO4)CC3)n2)cc1OC` [Compound 166, (S)-2((6-((4-ethoxy-3-methoxybenzyl)oxy)-3′,6′-dihydro-[2,4′-bipyridin]-1′(2′H)-yl)methyl)-1-(oxetan-2-ylmethyl)-1H-benzo[d]imidazole-6-carboxylic acid], for which the concentration for a half-maximal effect (EC50) was no more than 150 nM.

As to `O=C(O)c1ccc2nc(CN3CCN(c4ncnc(OCc5ccc(Cl)cc5F)n4)CC3)n(C[C@@H]3CCO3)c2c1` [Compound 167, (S)-2-((4-(4-((4-chloro-2-fluorobenzyl)oxy)-1,3,5-triazin-2-yl)piperazin-1-yl)methyl)-1-(oxetan-2-ylmethyl)-1H-benzo[d]imidazole-6-carboxylic acid], the EC50 was no more than 150 nM.

Consider `O=C(O)c1ccc2nc(CN3CC(=O)N(c4cccc(OCc5ccc(Cl)cc5F)n4)CC3=O)n(C[C@@H]3CCO3)c2c1` [Compound 168, (S)-2-((4-(6-(4-chloro-2-fluorobenzyloxy)pyridin-2-yl)-2,5-dioxopiperazin-1-yl)methyl)-1-(oxetan-2-ylmethyl)-1H-benzo[d]imidazole-6-carboxylic acid], for which the EC50 is no more than 15 nM.

On to `O=C(O)c1ccc2nc(CN3CC=C(c4cccc(OCc5ccc(Cl)cc5F)n4)CC3)n(C[C@@H]3CCO3)c2n1` [Compound 169, (S)-2-((6-((4-chloro-2-fluorobenzyl)oxy)-3′,6′-dihydro-[2,4′-bipyridin]-1′(2′H)-yl)methyl)-3-(oxetan-2-ylmethyl)-3H-imidazo[4,5-b]pyridine-5-carboxylic acid], for which the EC50 was no more than 15 nM.

For `O=C(O)c1cc2c(cn1)nc(CN1CC=C(c3cccc(OCc4ccc(Cl)cc4F)n3)CC1)n2C[C@@H]1CCO1` [Compound 170, (S)-2-((G-((4-chloro-2-fluorobenzyl)oxy)-3′,6′-dihydro-[2H′-bipyridin]-1 (2′H)-yl)methyl)-1-(oxetan-2-ylmethyl)-1H-imidazo[4,5-c]pyridine-6-carboxylic acid], the concentration giving a half-maximal response (EC50) is no more than 15 nM.

Turning to `O=C(O)c1ccc2nc(CN3CC=C(c4cccc(OCc5ccc(Cl)cc5F)n4)CC3)n(C[C@@H]3CCO3)c2c1F` [Compound 171, (S)-2-((6-((4-chloro-2-fluorobenzyl)oxy)-3′,6′-dihydro-[2,4′-bipyridin]-1′(2′H)-yl)methyl)-7-fluoro-1-(oxetan-2-ylmethyl)-1H-benzo[d]imidazole-6-carboxylic acid], the EC50 was no more than 15 nM.

As for `O=C(O)c1cc2c(cc1F)nc(CN1CC=C(c3cccc(OCc4ccc(Cl)cc4F)n3)CC1)n2C[C@@H]1CCO1` [Compound 172, (S)-2-((6-((4-chloro-2-fluorobenzyl)oxy)-3′,6′-dihydro-[2H′-bipyridin]-1′(2′H)-yl)methyl)-5-fluoro-1-(oxetan-2-ylmethyl)-1H-benzo[d]imidazole-6-carboxylic acid], the concentration giving a half-maximal response (EC50) is no more than 15 nM.

As for `O=C(NS(=O)(=O)C(F)(F)F)c1ccc2nc(CN3CC=C(c4cccc(OCc5ccc(Cl)cc5F)n4)CC3)n(C[C@@H]3CCO3)c2c1` [Compound 173, (S)-2-((6-((4-chloro-2-fluorobenzyl)oxy)-3′,6′-dihydro-[2,4′-bipyridin]-1′(2′H)-yl)methyl)-1-(oxetan-2-ylmethyl)-N-((trifluoromethyl)sulfonyl)-1H-benzo[d]imidazole-6-carboxamide], the EC50 is no more than 1000 nM.

For the molecule `O=C(NO)c1ccc2nc(CN3CC=C(c4cccc(OCc5ccc(Cl)cc5F)n4)CC3)n(C[C@@H]3CCO3)c2c1` [Compound 174, (S)-2-((6-((4-chloro-2-fluorobenzyl)oxy)-5′,6′-dihydro-[2,4′-bipyridin]-1′(2′H)-yl)methyl)-N-hydroxy-1-(oxetan-2-ylmethyl)-1H-benzo[d]imidazole-6-carboxamide], the concentration giving a half-maximal response (EC50) is no more than 15 nM.

Consider `N#Cc1ccc(COc2cccc(C3=CCN(Cc4nc5ccc(C(=O)O)cc5n4C[C@@H]4CCO4)CC3)c2)c(F)c1` [Compound 175, (S)-2-((4-(3-((4-cyano-2-fluorobenzyl)oxy)phenyl)-3,6-dihydropyridin-1(2H)-yl)methyl)-1-(oxetan-2-ylmethyl)-1H-benzo[d]imidazole-6-carboxylic acid], for which the EC50 is no more than 15 nM.

As to `N#Cc1ccc(COc2ccnc(C3=CCN(Cc4nc5ccc(C(=O)O)cc5n4C[C@@H]4CCO4)CC3)n2)c(F)c1` [Compound 176, (S)-2-((4-(4-((4-cyano-2-fluorobenzyl)oxy)pyrimidin-2-yl)-3,6-dihydropyridin-1(2H)-yl)methyl)-1-(oxetan-2-ylmethyl)-1H-benzo[d]imidazole-6-carboxylic add], the EC50 was no more than 15 nM.

For the origin of these results see patent US10844049B2, “GLP-1R agonists and uses thereof” (QILU REGOR THERAPEUTICS INC., priority 2018, dated 2020).
